Our source for the dTm values is paper PMC10070484, “Structure and mechanism of oxalate transporter OxlT in an oxalate-degrading bacterium in the gut microbiota” (Nature Communications, 2023).

What all share (experiment): GFP thermal shift (GFP-TS)
What all share (type): binding
Conditions in all cases: 3 mM potassium oxalate; crude DDM-solubilised OxlT-GFPuv from E. coli membranes; 300 mM potassium acetate, pH 7.0

In test [1] the target is T1, OxlT (Oxalobacter formigenes, UniProt Q51330, Y124A).
T1 construct: full-length; C-terminal nona-His tag from E. coli XL3 (crystal, purified); C-terminal GFPuv fusion from E. coli BL21(DE3) in DDM (GFP-TS); pRSF-OxlT for transport; monomer

Test [2] concerns the target T2, OxlT (Oxalobacter formigenes, UniProt Q51330, N268A).
T2 construct: full-length; C-terminal nona-His tag from E. coli XL3 (crystal, purified); C-terminal GFPuv fusion from E. coli BL21(DE3) in DDM (GFP-TS); pRSF-OxlT for transport; monomer

The target in test [3] is T3, OxlT (Oxalobacter formigenes, UniProt Q51330, R272A).
T3 construct: full-length; C-terminal nona-His tag from E. coli XL3 (crystal, purified); C-terminal GFPuv fusion from E. coli BL21(DE3) in DDM (GFP-TS); pRSF-OxlT for transport; monomer

The target of test [4] is T4, OxlT (Oxalobacter formigenes, UniProt Q51330, K355Q).
T4 construct: full-length; C-terminal nona-His tag from E. coli XL3 (crystal, purified); C-terminal GFPuv fusion from E. coli BL21(DE3) in DDM (GFP-TS); pRSF-OxlT for transport; monomer

Test [5] deals with T5, OxlT (Oxalobacter formigenes, UniProt Q51330, W324A).
T5 construct: full-length; C-terminal nona-His tag from E. coli XL3 (crystal, purified); C-terminal GFPuv fusion from E. coli BL21(DE3) in DDM (GFP-TS); pRSF-OxlT for transport; monomer

The target of test [6] is T6, OxlT (Oxalobacter formigenes, UniProt Q51330, Q34A).
T6 construct: full-length; C-terminal nona-His tag from E. coli XL3 (crystal, purified); C-terminal GFPuv fusion from E. coli BL21(DE3) in DDM (GFP-TS); pRSF-OxlT for transport; monomer

For test [7], the target named is T7, OxlT (Oxalobacter formigenes, UniProt Q51330, Y35A).
T7 construct: full-length; C-terminal nona-His tag from E. coli XL3 (crystal, purified); C-terminal GFPuv fusion from E. coli BL21(DE3) in DDM (GFP-TS); pRSF-OxlT for transport; monomer

The target of test [8] is T8, OxlT (Oxalobacter formigenes, UniProt Q51330).
T8 construct: full-length; C-terminal nona-His tag from E. coli XL3 (crystal, purified); C-terminal GFPuv fusion from E. coli BL21(DE3) in DDM (GFP-TS); pRSF-OxlT for transport; monomer
T8 sequence (Q51330 1-418): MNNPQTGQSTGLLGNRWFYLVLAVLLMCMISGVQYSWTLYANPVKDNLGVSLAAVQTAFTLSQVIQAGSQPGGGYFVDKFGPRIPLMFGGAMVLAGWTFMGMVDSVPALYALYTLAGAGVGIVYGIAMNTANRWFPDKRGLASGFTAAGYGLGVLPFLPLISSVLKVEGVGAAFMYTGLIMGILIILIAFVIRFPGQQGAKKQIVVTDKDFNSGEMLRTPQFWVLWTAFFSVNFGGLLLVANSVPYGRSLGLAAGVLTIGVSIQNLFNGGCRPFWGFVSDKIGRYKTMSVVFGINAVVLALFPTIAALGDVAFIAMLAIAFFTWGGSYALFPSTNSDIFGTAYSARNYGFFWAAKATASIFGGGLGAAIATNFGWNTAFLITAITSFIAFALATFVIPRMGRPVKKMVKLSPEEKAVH

For test [9], the target named is T9, OxlT (Oxalobacter formigenes, UniProt Q51330, Y328A).
T9 construct: full-length; C-terminal nona-His tag from E. coli XL3 (crystal, purified); C-terminal GFPuv fusion from E. coli BL21(DE3) in DDM (GFP-TS); pRSF-OxlT for transport; monomer

Test [10] concerns the target T10, OxlT (Oxalobacter formigenes, UniProt Q51330, Y150A).
T10 construct: full-length; C-terminal nona-His tag from E. coli XL3 (crystal, purified); C-terminal GFPuv fusion from E. coli BL21(DE3) in DDM (GFP-TS); pRSF-OxlT for transport; monomer

The target of test [11] is T11, OxlT (Oxalobacter formigenes, UniProt Q51330, W352A).
T11 construct: full-length; C-terminal nona-His tag from E. coli XL3 (crystal, purified); C-terminal GFPuv fusion from E. coli BL21(DE3) in DDM (GFP-TS); pRSF-OxlT for transport; monomer
T11 sequence (Q51330 whole entry W352A, the tested form may be a part): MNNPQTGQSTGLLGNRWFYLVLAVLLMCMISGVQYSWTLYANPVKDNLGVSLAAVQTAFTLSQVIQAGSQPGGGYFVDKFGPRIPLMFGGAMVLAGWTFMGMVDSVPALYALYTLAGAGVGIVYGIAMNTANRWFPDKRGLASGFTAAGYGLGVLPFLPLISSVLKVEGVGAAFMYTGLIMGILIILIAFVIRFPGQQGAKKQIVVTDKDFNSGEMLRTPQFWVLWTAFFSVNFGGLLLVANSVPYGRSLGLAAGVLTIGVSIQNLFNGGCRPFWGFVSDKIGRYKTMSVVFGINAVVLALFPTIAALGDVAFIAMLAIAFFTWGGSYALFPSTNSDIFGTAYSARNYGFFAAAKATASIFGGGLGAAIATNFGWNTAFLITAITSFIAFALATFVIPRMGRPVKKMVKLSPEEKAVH

T10 sequence (Q51330 whole entry Y150A, the tested form may be a part): as the sequence (Q51330 whole entry W352A, the tested form may be a part) above, with Y150A, A352W counted along it
T2 sequence (Q51330 whole entry N268A, the tested form may be a part): as the sequence (Q51330 whole entry W352A, the tested form may be a part) above, with N268A, A352W counted along it
T5 sequence (Q51330 whole entry W324A, the tested form may be a part): as the sequence (Q51330 whole entry W352A, the tested form may be a part) above, with W324A, A352W counted along it
T1 sequence (Q51330 whole entry Y124A, the tested form may be a part): as the sequence (Q51330 whole entry W352A, the tested form may be a part) above, with Y124A, A352W counted along it
T7 sequence (Q51330 whole entry Y35A, the tested form may be a part): as the sequence (Q51330 whole entry W352A, the tested form may be a part) above, with Y35A, A352W counted along it
T6 sequence (Q51330 whole entry Q34A, the tested form may be a part): as the sequence (Q51330 whole entry W352A, the tested form may be a part) above, with Q34A, A352W counted along it
T9 sequence (Q51330 whole entry Y328A, the tested form may be a part): as the sequence (Q51330 whole entry W352A, the tested form may be a part) above, with Y328A, A352W counted along it
T3 sequence (Q51330 whole entry R272A, the tested form may be a part): as the sequence (Q51330 whole entry W352A, the tested form may be a part) above, with R272A, A352W counted along it
T4 sequence (Q51330 whole entry K355Q, the tested form may be a part): as the sequence (Q51330 whole entry W352A, the tested form may be a part) above, with A352W, K355Q counted along it

Take `O=C(O)C(=O)O` [oxalate]: the dTm entry is “reduced in the mutant OxlT proteins Q34A, Y35A, Y124A, Y150A, N268A, R272A, W324A and K355Q” on OxlT [1]; “reduced in the mutant OxlT proteins Q34A, Y35A, Y124A, Y150A, N268A, R272A, W324A and K355Q” on OxlT [2]; “reduced in the mutant OxlT proteins Q34A, Y35A, Y124A, Y150A, N268A, R272A, W324A and K355Q” on OxlT [3]; “reduced in the mutant OxlT proteins Q34A, Y35A, Y124A, Y150A, N268A, R272A, W324A and K355Q” at OxlT [4]; “reduced in the mutant OxlT proteins Q34A, Y35A, Y124A, Y150A, N268A, R272A, W324A and K355Q” at OxlT [5]; “reduced in the mutant OxlT proteins Q34A, Y35A, Y124A, Y150A, N268A, R272A, W324A and K355Q” at OxlT [6]. Moreover, the dTm result is “reduced in the mutant OxlT proteins Q34A, Y35A, Y124A, Y150A, N268A, R272A, W324A and K355Q” on OxlT [7]; “In the GFP-TS assay, wild-type OxlT exhibited thermal stabilisation upon oxalate binding” at OxlT [8]; “Y328A and W352A showed similar oxalate binding but reduced oxalate uptake activities” on OxlT [9]; “reduced in the mutant OxlT proteins Q34A, Y35A, Y124A, Y150A, N268A, R272A, W324A and K355Q” at OxlT [10]; “Y328A and W352A showed similar oxalate binding but reduced oxalate uptake activities” at OxlT [11].
